Data: patent publication US20220381787A1, “NOVEL LOX-1 ANTIBODY COMPOSITIONS, LOX1 NEUTRALIZATION ASSAY AND METHODS OF TREATMENT USING SAME” (The Wistar Institute of Anatomy and Biology, priority 2019, published 2022)

System: PMN isolated from a healthy donor
Experiment: FACS of untreated or Thapsigargin-treated PMN for LOX-1 expression
Assay type: cell-based, human
Settings: 1 μM Thapsigargin (THG)
Experimental: FIGS. 10A and 10B show FACS analyses of PMN cells showing the expression of LOX-1. Representative histograms of untreated or Thapsigargin (THG)-treated cells were stained after incubating with anti-LOX-1 antibody (Ab) are shown. Percentage of LOX-1^+ PMN and expression of LOX-1 in PMN isolated from a healthy donor and treated with 1 μM […] and 1 mM Dithiothreitol (DTT). Representative LOX-1 expression level with anti-LOX-1 and commercial Abs. Representative LOX-1 expression level with DMAb derived Abs. Summary of data derived from FACS analysis of LOX-1 level is expressed as the % of LOX-1^+/CD15^+.

C/C=C(/C)C(=O)O[C@H]1C(C)=C2[C@H]([C@@H]1OC(=O)CCCCCCC)[C@@](C)(OC(C)=O)C[C@H](OC(=O)CCC)[C@@]1(O)[C@H]2OC(=O)[C@@]1(C)O [THG, Thapsigargin]
percentage of LOX-1+ PMN (% of LOX-1+/CD15+): Higher percentages of PMN expressed LOX-1
